Reference: PMC7311426, “An amphipathic peptide with antibiotic activity against multidrug-resistant Gram-negative bacteria” (Nature Communications, 2020)
≈ marks a conversion by molar mass, not a printed value.

How the values were obtained:
[1] = tested on: E. coli (AID#172 & ATCC 25922); experiment: microbe, parasite or virus in culture; assay type: cell-based, Escherichia coli
Procedure: (§1) The test media was cation-adjusted MHB (CAMHB, Becton Dickinson) supplemented with 2% Noble Agar (Becton Dickinson) and additionally for AA139 with 0.1% BSA. The agar dilution MIC values were determined as recommended by Clinical and Laboratory Standards Institute (CLSI)[47]. […] The inoculum for the spontaneous mutation plates targeted 10^9 to 10^10 colony-forming units (CFU) per plate. The viable count of each suspension was determined by plating serial ten-fold dilutions onto MHB/NA in duplicate. In addition, agar plates without drug were inoculated as positive controls. Plates were inspected for growth at both 24 and 48 h. Colony counts were determined manually. Using the counts at 48 h, the spontaneous mutation frequency was calculated using the following equation: (average number of colonies from duplicate selection plates)/(total number of cells inoculated onto each plate). If there were no colonies on the antibiotic selection plates, the spontaneous mutation frequency was reported as less than the frequency observed with one colony to indicate that the spontaneous mutation frequency was less than the limit of detection (one CFU).

K. pneumoniae = experiment: microbe, parasite or virus in culture; assay type: cell-based, Klebsiella pneumoniae
L. monocytogenes = experiment: microbe, parasite or virus in culture
In short: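 Broth microdilution in MHB, 2-fold 12-point series from 128 or 64 down to 0.06 or 0.03 μg mL^−1, 5 × 10^5 CFU mL^−1. Extra runs in CAMHB per CLSI and in MHB with 1% agarose; n ≥ 6.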

E. coli = tested on: E. coli; design: method as in Hasman H, et al. Euro. Surveill. (2015) 20:49; settings: E. coli ESBL20150072, mcr-1 pos; ESBL; CAMHB; comparator antibiotics; ref Hasman H, et al. Euro. Surveill. (2015) 20:49; cited from earlier work
[2] = tested on: K. pneumoniae (#3010 & ST258); experiment: microbe, parasite or virus in culture; assay type: cell-based, Klebsiella pneumoniae
Procedure: as §1

[3] = tested on: P. aeruginosa (UNT138-1 & ATCC 27853); experiment: microbe, parasite or virus in culture; assay type: cell-based, Pseudomonas aeruginosa
Procedure: as §1

P. aeruginosa = P. aeruginosa ATCC 27853; quality control range printed beside broth microdilution MIC of parent strain; cited from earlier work
[4] = tested on: E. coli clinical isolates; experiment: microbe, parasite or virus in culture
In short: (§2)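 MIC90 from CLSI broth microdilution (M07-A9) in two clinical-isolate panels. US panel (331 isolates, 2010-2012): AA139 diluted in 0.01% acetic acid/0.1% BSA. Worldwide panel (445 isolates, 2011-2013, four regions): CAMHB, with 0.002% Tween 80 added for AA139 and polymyxin B.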

[5] = tested on: P. aeruginosa clinical isolates; experiment: microbe, parasite or virus in culture
In short: as §2

[6] = tested on: K. pneumoniae clinical isolates; experiment: microbe, parasite or virus in culture
In short: as §2

[7] = K. pneumoniae ATCC 700603 ESBL, OXA-2/SHV-18, n=2 to 6, mode or median
[8] = Worldwide isolates 2011-2013, E. coli n = 112
[9] = Worldwide isolates 2011-2013, P. aeruginosa n = 111
[10] = Worldwide isolates 2011-2013, K. pneumoniae n = 114

In the case of colistin, the “Noble agar dilution MIC” value ([1]; E. coli AID#172) is reported as 1 µg/mL, the “Spontaneous frequency of resistance at 4× MIC” value ([1]; E. coli AID#172, counts at 48 h, >TC = colonies too numerous to count) is reported as “>TC” and the “Agar (Noble) Dilution MIC” value ([1]; E. coli ATCC 25922) is reported as 1 µg/mL. The “Noble agar dilution MIC” value ([1]; E. coli ATCC 25922) was 1 µg/mL, the “MIC, Serum (50%) replicates” value (K. pneumoniae; K. pneumoniae ATCC 13883, type strain, BMD with 50% human serum, replicate 1) was at most 0.03 and the “MIC, Serum (50%) replicates” value (K. pneumoniae; K. pneumoniae ATCC 13883, type strain, BMD with 50% human serum, replicate 2) was at most 0.03. The “MIC, Serum (50%)” value (K. pneumoniae; K. pneumoniae ATCC 13883, type strain, BMD with 50% human serum, where n=2 differs the higher value is recorded) was at most 0.03, the “MIC, Serum (50%)” value (K. pneumoniae; K. pneumoniae ATCC 13883 type strain, n=2 to 6, mode or median) was at most 0.03 µg/mL and the “MIC, Survanta (5%)” value (K. pneumoniae; K. pneumoniae ATCC 700603, ESBL, OXA-2/SHV-18, BMD with 5% Survanta lung surfactant, mode, or median where no mode, n=4 to 6, where n=2 differs the higher value) was 0.125. For the same compound, the “MIC, Survanta (5%) replicates” value (K. pneumoniae; K. pneumoniae ATCC 700603, ESBL, OXA-2/SHV-18, BMD with 5% Survanta lung surfactant, replicate 1) was 1, the “MIC, Survanta (5%) replicates” value (K. pneumoniae; K. pneumoniae ATCC 700603, ESBL, OXA-2/SHV-18, BMD with 5% Survanta lung surfactant, replicate 2) was 0.5 and the “MIC, Survanta (5%) replicates” value (K. pneumoniae; K. pneumoniae ATCC 700603, ESBL, OXA-2/SHV-18, BMD with 5% Survanta lung surfactant, replicate 3) was 0.03. For the same compound, the “MIC, Survanta (5%) replicates” value (K. pneumoniae; K. pneumoniae ATCC 700603, ESBL, OXA-2/SHV-18, BMD with 5% Survanta lung surfactant, replicate 4) was 0.06, the “MIC, Serum (50%)” value (K. pneumoniae; K. pneumoniae ATCC 700603, ESBL, OXA-2/SHV-18, BMD with 50% human serum, mode, or median where no mode, n=4 to 6, where n=2 differs the higher value) was 0.125 and the “MIC, Serum (50%) replicates” value (K. pneumoniae; K. pneumoniae ATCC 700603, ESBL, OXA-2/SHV-18, BMD with 50% human serum, replicate 1) was 0.25. The “MIC, Serum (50%) replicates” value (K. pneumoniae; K. pneumoniae ATCC 700603, ESBL, OXA-2/SHV-18, BMD with 50% human serum, replicate 2) was 0.25, the “MIC, Serum (50%) replicates” value (K. pneumoniae; K. pneumoniae ATCC 700603, ESBL, OXA-2/SHV-18, BMD with 50% human serum, replicate 3) was 0.031 and the “MIC, Serum (50%) replicates” value (K. pneumoniae; K. pneumoniae ATCC 700603, ESBL, OXA-2/SHV-18, BMD with 50% human serum, replicate 4) was 0.063. For the same compound, the “MIC, Serum (50%) replicates” value (K. pneumoniae; K. pneumoniae ATCC 700603, ESBL, OXA-2/SHV-18, BMD with 50% human serum, replicate 5) was 0.031, the “MIC, Serum (50%) replicates” value (K. pneumoniae; K. pneumoniae ATCC 700603, ESBL, OXA-2/SHV-18, BMD with 50% human serum, replicate 6) was at most 0.031 and the “MIC, Serum (50%)” value (K. pneumoniae; [7]) was 0.125 µg/mL. For the same compound, the “MIC, Survanta (5%)” value (K. pneumoniae; [7]) was 0.125 µg/mL, the “MIC, Survanta (5%)” value (K. pneumoniae; K. pneumoniae BAA-2146, NDM-1, BMD with 5% Survanta lung surfactant, mode, or median where no mode, n=4 to 6, where n=2 differs the higher value) was 0.06 and the “MIC, Survanta (5%) replicates” value (K. pneumoniae; K. pneumoniae BAA-2146, NDM-1, BMD with 5% Survanta lung surfactant, replicate 1) was 0.125. For the same compound, the “MIC, Survanta (5%) replicates” value (K. pneumoniae; K. pneumoniae BAA-2146, NDM-1, BMD with 5% Survanta lung surfactant, replicate 2) was 0.125, the “MIC, Survanta (5%) replicates” value (K. pneumoniae; K. pneumoniae BAA-2146, NDM-1, BMD with 5% Survanta lung surfactant, replicate 3) was at most 0.03 and the “MIC, Survanta (5%) replicates” value (K. pneumoniae; K. pneumoniae BAA-2146, NDM-1, BMD with 5% Survanta lung surfactant, replicate 4) was at most 0.03. For the same compound, the “MIC, Survanta (5%)” value (K. pneumoniae; K. pneumoniae BAA-2146 NDM-1, n=2 to 6, mode or median) was 0.06 µg/mL, the “BMD MIC” value (L. monocytogenes; L. monocytogenes ATCC 19112, MHB, mode of 6 replicates) was 16 µg/mL and the “BMD MIC” value (E. coli) was over 4 µg/mL. For the same compound, the “Noble agar dilution MIC” value ([2]; K. pneumoniae SSI#3010) was 1 µg/mL, the “Agar (Noble) Dilution MIC” value ([2]; K. pneumoniae ST258) was 1 µg/mL and the “Noble agar dilution MIC” value ([2]; K. pneumoniae ST258) was 1 µg/mL. The “Agar (Noble) Dilution MIC” value ([3]; P. aeruginosa ATCC 27853) was 2 µg/mL, the “Noble agar dilution MIC” value ([3]; P. aeruginosa ATCC 27853) was 2 µg/mL and the “Noble agar dilution MIC” value ([3]; P. aeruginosa UNT138-1) was 2 µg/mL.

For `C[C@@H](O)[C@H]1C(=O)N2C(C(=O)O)=C(S[C@@H]3CN[C@H](C(=O)N(C)C)C3)[C@H](C)[C@H]12` [Meropenem, meropenem, reference compound], the MIC (L. monocytogenes; Listeria monocytogenes, ATCC19112, read-out: BMD MIC) is given as 0.5 µg/mL (≈ 1.3 µM), the “BMD MIC” value (E. coli) is given as at most 1 µg/mL and the “MIC Quality control range” value (P. aeruginosa) is given as 0.12 to 1 µg/mL. The MIC90 ([4]; Escherichia coli, US isolates 2010–2012, E. coli MDR, n = 31) was 16 µg/mL (≈ 41.7 µM), the MIC90 ([4]; Escherichia coli, US isolates 2010–2012, E. coli Non-MDR, n = 24) was 0.03 µg/mL (≈ 0.0782 µM) and the MIC50 [4, 8] was at most 0.015 µg/mL. The MIC90 [4, 8] was 0.03 µg/mL (≈ 0.0782 µM), the MIC90 ([5]; Pseudomonas aeruginosa, US isolates 2010–2012, P. aeruginosa Non-MDR, n = 41) was 16 µg/mL (≈ 41.7 µM) and the MIC90 ([5]; Pseudomonas aeruginosa, US isolates 2010–2012, P. aeruginosa XDR, n = 37) was over 16 µg/mL. The MIC50 [5, 9] was 1 µg/mL (≈ 2.61 µM), the MIC90 [5, 9] was over 16 µg/mL and the MIC90 ([6]; Klebsiella pneumoniae, US isolates 2010–2012, K. pneumoniae Non-MDR, n = 24) was 0.06 µg/mL (≈ 0.156 µM). The MIC90 ([6]; Klebsiella pneumoniae, US isolates 2010–2012, K. pneumoniae XDR, n = 55) was over 16 µg/mL, the MIC50 [6, 10] was 0.03 µg/mL (≈ 0.0782 µM) and the MIC90 [6, 10] was over 16 µg/mL.

In the case of `C[C@H]1[C@H](NC(=O)/C(=N\OC(C)(C)C(=O)O)c2csc(N)n2)C(=O)N1S(=O)(=O)O` [AZT], the “MIC Quality control range” value (P. aeruginosa) is given as 2 to 8 µg/mL.

For `NC[C@H]1O[C@H](O[C@H]2[C@H](O)[C@@H](O[C@H]3O[C@H](CO)[C@@H](O)[C@H](N)[C@H]3O)[C@H](N)C[C@@H]2N)[C@H](N)C[C@@H]1O` [TOB], the “MIC Quality control range” value (P. aeruginosa) is given as 0.25 to 1 µg/mL.
